From patent publication US20260216154A1, “POTASSIUM CHANNEL BLOCKERS OR DERIVATIVES THEREOF FOR PREVENTING, ALLEVIATING, AND/OR TREATING MORBIDITY AND MORTALITY INDUCED BY PATHOGENS OR OTHER INDUCERS OF IMMUNE […]/OR EXCESS IMMUNE ACTIVATI” (University of Rochester, priority 2023, published 2026)
Entries after “also recorded” stand apart in the source; their conditions may differ.

Legend:
[1] = system: non-neurotropic, non-lethal influenza virus (x31 strain); assay type: in vivo, mice; conditions: accelerating rod, three consecutive runs
influenza virus (x31) = assay type: in vivo, mice

Nc1ccncc1 [4-AP, 4-aminopyridine]
animals showing a decreased time to fall on the rotarod [1]: 27% | mice surviving until at least Day 14 (survivors/treated) (influenza virus (x31); […], 4-AP 1.5 mg/kg, corticosteroid 1 mg/kg, N=7/group): 7/7 | influenza-induced weight loss (in words) (influenza virus (x31); mouse, in vivo): lesser weight loss; also recorded: attenuated | survival of infected ATM KO mice (in words) (influenza virus (x31); mouse, in vivo): complete rescue from death
